In ChEMBL document CHEMBL1137928, “Plasmepsin II inhibition and antiplasmodial activity of Primaquine-Statine 'double-drugs'” (Bioorg Med Chem Lett, 2004) one finds Ki, IC50 and inhibition data, which are given here for 9 compounds.

A value given as a limit tells only on which side of the number the result lay.

Experiment [1] has as its target T1, Plasmepsin II (Plasmodium falciparum, UniProt P46925). Kind of experiment: In vitro binding affinity towards Plasmodium falciparum plasmepsin-2.
The target in experiment [2] is T1, Plasmepsin II. Briefly: In vitro concentration required for inhibition of Plasmodium falciparum plasmepsin-2.
Experiment [3] relates to Plasmodium falciparum. Kind of experiment: Inhibition of Plasmodium falciparum. It is filed as functional, organism-based.
Experiment [4] deals with Plasmodium falciparum. Briefly: In vitro inhibitory activity against chloroquine-resistant Plasmodium falciparum W2 infected human erythrocytes at 9 uM. The class given is functional.
Experiment [5] relates to Plasmodium falciparum. Briefly: In vitro inhibitory activity against chloroquine-sensitive Plasmodium falciparum D-10 infected human red blood cells at 9 uM. The class given is functional.
The subject of experiment [6] is Plasmodium falciparum. Kind of experiment: In vitro inhibitory activity against chloroquine-sensitive Plasmodium falciparum D10 infected human red blood cells. It is filed as functional, organism-based.
Experiment [7] concerns Plasmodium falciparum. Briefly: In vitro inhibitory activity against chloroquine-resistant Plasmodium falciparum W-2 infected human erythrocytes. The class given is functional, organism-based.

T1 sequence (P46925 whole entry): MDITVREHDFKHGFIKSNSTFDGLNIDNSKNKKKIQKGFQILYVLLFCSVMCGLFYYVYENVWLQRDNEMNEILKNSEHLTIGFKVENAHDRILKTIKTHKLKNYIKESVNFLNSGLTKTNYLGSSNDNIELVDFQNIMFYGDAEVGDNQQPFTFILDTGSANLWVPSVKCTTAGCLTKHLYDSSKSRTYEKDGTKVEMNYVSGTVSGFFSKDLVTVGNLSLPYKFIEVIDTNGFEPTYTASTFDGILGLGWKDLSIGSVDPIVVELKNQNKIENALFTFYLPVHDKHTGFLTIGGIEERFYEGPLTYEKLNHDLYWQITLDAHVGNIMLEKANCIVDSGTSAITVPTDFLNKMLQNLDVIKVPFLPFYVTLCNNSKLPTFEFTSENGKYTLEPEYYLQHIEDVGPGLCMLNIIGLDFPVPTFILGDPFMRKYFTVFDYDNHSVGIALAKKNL

Usually Ki stands for the dissociation constant of the complex between target and ligand, obtained from inhibition or displacement. A high value points to weaker binding. `CCCCNC(=O)C[C@H](O)[C@H](Cc1ccccc1)NC(=O)[C@@H](NC(=O)COc1ccc2ccccc2c1)[C@@H](C)CC` returned a Ki on Plasmepsin II [1] of 110 nM.
What is called IC50 is the point on the concentration scale where inhibition reaches its midpoint. Read a high IC50 as lower potency. On to `COc1cc(NC(C)CCCNC(=O)[C@@H](N)CCCCN)c2ncccc2c1` (stereo partly specified), for which the IC50 against Plasmepsin II [2] was > 1000 nM; in the experiment on Plasmodium falciparum [3], ~20000 nM.
As a reminder, the inhibition is the percentage by which the read-out fell short of the control. On to `CCCCNC(=O)C[C@H](O)[C@H](CC(C)C)NC(=O)[C@@H](NC(=O)CCC(=O)N[C@@H](CC(C)C)C(=O)N[C@@H](CCCCN)C(=O)NCCCC(C)Nc1cc(OC)cc2cccnc12)[C@H](C)CC` (stereo partly specified), for which the inhibition at 9 µM turned out to be 40% in the experiment on Plasmodium falciparum [4] and 20% with Plasmodium falciparum [5]. Moreover, half-maximal inhibition against Plasmepsin II [2] (IC50) was put at 396 nM.
In the case of `CCCCNC(=O)C[C@H](O)[C@H](CC(C)C)NC(=O)[C@@H](NC(=O)c1ccc2cc(C(=O)OCCCC(=O)N[C@H](CC(C)C)C(=O)N[C@H](CCCCN)C(=O)NCCCC(C)Nc3cc(OC)cc4cccnc34)ccc2c1)[C@H](C)CC` (stereo partly specified), the IC50 in the experiment on Plasmodium falciparum [6] worked out at 3300 nM; with Plasmodium falciparum [7], 1000 nM; against Plasmepsin II [2], 9.6 nM.
Take `CCCCNC(=O)C[C@H](O)[C@H](CC(C)C)NC(=O)[C@@H](NC(=O)COc1ccc2ccccc2c1)[C@@H](C)CC`: the inhibition constant Ki on Plasmepsin II [1] turned out to be 180 nM. That is a sub-micromolar value.
As to `CCCCNC(=O)C[C@H](O)[C@H](CC(C)C)NC(=O)[C@@H](NC(=O)c1ccc2cc(C(=O)N[C@H](CC(C)C)C(=O)N[C@H](CCCCN)C(=O)NCCCC(C)Nc3cc(OC)cc4cccnc34)ccc2c1)[C@H](C)CC` (stereo partly specified), the 50% inhibitory concentration (IC50) was determined as 6200 nM with Plasmodium falciparum [6], 4700 nM with Plasmodium falciparum [7] and 1.51 nM on Plasmepsin II [2].
`CCCCNC(=O)C[C@H](O)[C@H](CC(C)C)NC(=O)[C@@H](NC(=O)Cc1ccc(CC(=O)N[C@@H](CC(C)C)C(=O)N[C@@H](CCCCN)C(=O)NCCCC(C)Nc2cc(OC)cc3cccnc23)cc1)[C@H](C)CC` (stereo partly specified): the results for the IC50 in the experiment on Plasmodium falciparum [6], in the experiment on Plasmodium falciparum [7] and on Plasmepsin II [2] were 5500 nM, 4200 nM and 135 nM, respectively.
For `CCCCNC(=O)C[C@H](O)[C@H](CC(C)C)NC(=O)[C@@H](NC(=O)c1ccc(Oc2ccc(C(=O)N[C@@H](CC(C)C)C(=O)O)cc2)cc1)C(C)CC` (stereo partly specified), the IC50 against Plasmepsin II [2] is 123 nM; with Plasmodium falciparum [3] it was ~17000 nM.
Turning to `CCCCNC(=O)C[C@H](O)[C@H](CC(C)C)NC(=O)[C@@H](NC(=O)c1ccc(Oc2ccc(C(=O)N[C@H](CC(C)C)C(=O)N[C@H](CCCCN)C(=O)NCCCC(C)Nc3cc(OC)cc4cccnc34)cc2)cc1)[C@H](C)CC` (stereo partly specified), the IC50 in the experiment with Plasmodium falciparum [6] stood at 400 nM; in the experiment with Plasmodium falciparum [7] it was 700 nM; on Plasmepsin II [2], 0.59 nM.
